# Counter-ions that a name gives are not always drawn.
# Tested on: human epidermal keratinocytes
# Assay: Epidermal keratinocyte proliferation in dermal papilla cell and epidermal keratinocyte double-layer culture system
# Format: cell-based
# Conditions: 0.2 μg/ml, 2 μg/ml, 20 μg/ml, 200 μg/ml
# Experimental: 500 μl of human epidermal keratinocytes (30,000 cells/ml) were added to each well of MULTIWELL 24well, followed by the addition of 1.0 μm of cell culture inserts for culture for 1 day. 300 μl of dermal papilla cells (20,000 cells/ml) had been added in the 1.0 μm of cell culture inserts. each 1 μl/well of the Radix et Rhizoma Ginseng extracts 1-7, the positive control (minoxidil sulfate) and the blank control (DMSO) was then added for continued culture for 3 days. After removal of the 1.0 μm of cell culture inserts, 50 μl/well of Cell Counting Kit-8 (Dojindo Laboratories) was added for continued culture for 2 hours, and the cell number was determined using a microplate reader (450 nm, Mix0).
smiles,measurement,value
"Nc1cc(N2CCCCC2)nc(N)[n+]1OS(=O)(=O)[O-] [Minoxidil sulfate, minoxidil sulfate]",epidermal keratinocyte proliferation in double-layer culture system,no effect in promoting keratinocyte proliferation

# Source: patent US12409126B2, “Ginsenoside-containing composition, daily-use chemical and use thereof” (InCipirit Tech (Guangzhou) Co., Ltd., priority 2023, dated 2025)
